Reference: US20120190703A1, “SALTS OF 13A-(S)DESOXYTYLOPHORININE, PREPARATION METHODS AND PHARMACEUTICAL COMPOSITIONS AND USES THEREOF” (priority 2009, published 2012)
Several values for one entry are separate records, joined by “and”; a condition that tells them apart may be missing. Equal entries are not always repeated. Where two headings read alike, the source gives them in different places. Marks after values point to notes of the source that are not given here.

Legend:
Solubility in water = type: physicochemical
H22 tumor-bearing mice = details: intragastric once daily
Source text: To determine the pharmacodynamic characters of 13a-(S)-deoxytylophorinine and its salts, the impact of these compounds to the tumor growth in H22 tumor-bearing mice was surveyed.
Male Kunming mice were obtained from the Laboratory Animal Center, Academy of Military Medical Science. Body weight 18˜22 g. 6 animals per group, totally 10 groups, 60 animals.
(+)-13a-(S)-deoxytylophorinine, (+)-13a-(S)-deoxytylophorinine Tartrate, (+)-13a-(S)-deoxytylophorinine Maleate, (+)-13a-(S)-deoxytylophorinine Citrate, Cytoxane (CTX) as positive control.
(+)-13a-(S)-deoxytylophorinine was administered at high dose (5 mg/kg) and low dose (2.5 mg/kg). Three (+)-13a-(S)-deoxytylophorinine salts were administered at high dose and low dose as equal moles with their prototype (Tartrate: 7.05 mg/kg, 3.53 mg/kg; Malate: 6.60 mg/kg, 3.30 mg/kg; Citrate: 7.90 mg/kg, 3.95 mg/kg).
Animals were reared in SPF grade circumstance to be observed for 24 h. The tumor cells liquid which resuscitated in abdominal cavity of KM mice was diluted with aseptic normal saline at 1:3 ratio. The resulting liquid was inoculated subcutaneously at forelimb with 0.2 mL every animal. After the injection over, the animals were divided to […] with 6 animals per group.
Four experimental samples were intragastric administered once daily 24 h after inoculation. The positive control CTX was intraperitoneal injected once daily. The animal body weight was recorded every day.

[1] = Drug distribution in brain tissue after oral administration in mice; type: in vivo, ICR mice; details: for Brain contents of (+)-13a-(S)-deoxytylophorinine (ng/ml), Mean ± SD / Brain contents of (+)-13a-(S)-deoxytylophorinine (ng/ml), individual animals 1-3: 6 mg/kg oral
Experimental: (§1) Male ICR mice. Body weight 18˜22 g.
Plasma was isolated by centrifugalization. […] 25% tissue homogenate was prepared with normal saline addition.
The drug concentration-time data in brain tissue after administered orally of (+)-13a-(S)-deoxytylophorinine tartrate, maleate and citrate were represented in Table 8˜10 and FIG. 6˜8. […] (+)-13a-(S)-deoxytylophorinine could be detected in 5 min. The peak concentration was reached after 15 min, and the compound still can be detected after 2 h after administration.

[2] = Plasma pharmacokinetics after oral administration in mice
Experimental: To determine the pharmacokinetic characters of 13a-(S)-deoxytylophorinine and its salts, the studies about plasma pharmacokinetics and the character of distribution in brain were pursued.
as §1
(+)-13a-(S)-deoxytylophorinine Tartrate, (+)-13a-(S)-deoxytylophorinine Maleate, (+)-13a-(S)-deoxytylophorinine Citrate. All were dissolved in distilled water as 0.6 mg/ml solution before experiment progressed.
72 mice were divided to 3 groups with 24 animals per group, fasting for 16 h and drinking water freely. […] Plasma was isolated by centrifugalization. After the salts were administered orally, the brain tissues of mice were collected at 5 min, 15 min, 2 h time points. 25% tissue homogenate was prepared with normal saline addition. 200 μL of homogenate and plasma were added isovolumic MeCN to precipitate protein. 5 μL of clear supernatant was analyzed by LC/MS/MS.
(+)-13a-(S)-deoxytylophorinine was dissolved in DMSO and then diluted with MeOH with concentration 10, 50, 100, 500, 1000 and 2500 ng/ml respectively. 10 μl of standard solutions of (+)-13a-(S)-deoxytylophorinine with different concentration above were added to 200 μl of blank plasma sequently to adjust the concentration to 0.5, 2.5, 5, 25, 50, 125 ng/ml respectively. MeCN was added to the solution to precipitate protein, and 5 μl of result clear supernatant was analyzed with LC/MS/MS. Linear regression was ran with the peak area of (+)-13a-(S)-deoxytylophorinine as ordinate and the concentrations as abscissa.

[3] = high dose × 7 d, equal moles: prototype 5.0, tartrate 7.05, maleate 6.60, citrate 7.90 mg/kg
[4] = low dose × 7 d, equal moles: prototype 2.5, tartrate 3.53, maleate 3.30, citrate 3.95 mg/kg
[5] = 6 mg/kg oral, mice, Time (min) 0.08
[6] = 6 mg/kg oral, mice, Time (min) 0.25
[7] = 6 mg/kg oral, mice, Time (min) 0.5
[8] = 6 mg/kg oral, mice, Time (min) 1
[9] = 6 mg/kg oral, mice, Time (min) 2
[10] = 6 mg/kg oral, mice, Time (min) 3
[11] = 6 mg/kg oral, mice, Time (min) 4
[12] = 6 mg/kg oral, mice, Time (min) 6
[13] = male, ICR, mouse, plasma, po, 6 mg/kg

## COc1ccc2c3c(c4cc(OC)c(OC)cc4c2c1)CN1CCC[C@H]1C3.O=C(O)/C=C\C(=O)O [Maleate, (+)-13a-(S)-deoxytylophorinine Maleate]
Solubility in water
  Solubility in water (words): soluble in water
Solubility in water; water
  solubility: 44 mg/mL
H22 tumor-bearing mice; [3]
  Animal No. (Initial/Final): 6/4
  Body Weight(g) Final: 13.62 ± 2.08 g
  Body Weight(g) Initial: 21.17 ± 0.98 g⁻¹
  Inhibition (%): 73.58** %
  Tumor Weight (g, mean ± SD): 0.30 ± 0.24 g
H22 tumor-bearing mice; [4]
  Animal No. (Initial/Final): 6/6
  Body Weight(g) Final: 23.79 ± 0.52 g
  Body Weight(g) Initial: 22.50 ± 1.05 g⁻¹
  Inhibition (%): 45.56%
  Tumor Weight (g, mean ± SD): 0.62 ± 0.31 g
[1]; Time (min) 5
  Brain contents of (+)-13a-(S)-deoxytylophorinine (ng/ml), Mean ± SD: 150.2 ± 84.8 ng/mL
  Brain contents of (+)-13a-(S)-deoxytylophorinine (ng/ml), individual animals 1-3: 245.2 ng/mL and 82.5 ng/mL and 122.7 ng/mL
[1]; Time (min) 15
  Brain contents of (+)-13a-(S)-deoxytylophorinine (ng/ml), Mean ± SD: 150.3 ± 49.8 ng/mL
  Brain contents of (+)-13a-(S)-deoxytylophorinine (ng/ml), individual animals 1-3: 159.3 ng/mL and 96.6 ng/mL and 194.9 ng/mL
[1]; Time (min) 120
  Brain contents of (+)-13a-(S)-deoxytylophorinine (ng/ml), Mean ± SD: 108.8 ± 74.7 ng/mL
  Brain contents of (+)-13a-(S)-deoxytylophorinine (ng/ml), individual animals 1-3: 27.2 ng/mL and 173.7 ng/mL and 125.4 ng/mL
[1]; oral, 3 time points
  Drug contents in brain compared with prototype: higher than their prototype
[2]; 6 mg/kg oral, mice
  Peak concentration in blood: 35.4 ± 3.5 ng/mL
  Time of peak concentration in blood: 5 min
[2]; 6 mg/kg oral, mice, plasma, non-compartment model
  t½z: 1.72 h
[2]; [5]
  Blood concentration of (+)-13a-(S)-deoxytylophorinine (ng/ml), Mean ± SD: 35.4 ± 3.5 ng/mL
  Blood concentration of (+)-13a-(S)-deoxytylophorinine (ng/ml), individual animals 1-3: 33.0 ng/mL and 37.9 ng/mL
[2]; [6]
  Blood concentration of (+)-13a-(S)-deoxytylophorinine (ng/ml), Mean ± SD: 27.4 ± 6.2 ng/mL
  Blood concentration of (+)-13a-(S)-deoxytylophorinine (ng/ml), individual animals 1-3: 24.2 ng/mL and 23.5 ng/mL and 34.6 ng/mL
[2]; [7]
  Blood concentration of (+)-13a-(S)-deoxytylophorinine (ng/ml), Mean ± SD: 12.2 ± 4.0 ng/mL
  Blood concentration of (+)-13a-(S)-deoxytylophorinine (ng/ml), individual animals 1-3: 15.7 ng/mL and 13.0 ng/mL and 7.9 ng/mL
[2]; [8]
  Blood concentration of (+)-13a-(S)-deoxytylophorinine (ng/ml), Mean ± SD: 9.2 ± 3.2 ng/mL
  Blood concentration of (+)-13a-(S)-deoxytylophorinine (ng/ml), individual animals 1-3: 12.5 ng/mL and 6.2 ng/mL and 8.7 ng/mL
[2]; [9]
  Blood concentration of (+)-13a-(S)-deoxytylophorinine (ng/ml), Mean ± SD: 11.2 ± 8.0 ng/mL
  Blood concentration of (+)-13a-(S)-deoxytylophorinine (ng/ml), individual animals 1-3: 2.0 ng/mL and 15.9 ng/mL and 15.7 ng/mL
[2]; [10]
  Blood concentration of (+)-13a-(S)-deoxytylophorinine (ng/ml), Mean ± SD: 8.6 ± 6.6 ng/mL
  Blood concentration of (+)-13a-(S)-deoxytylophorinine (ng/ml), individual animals 1-3: 3.6 ng/mL and 16.1 ng/mL and 6.3 ng/mL
[2]; [11]
  Blood concentration of (+)-13a-(S)-deoxytylophorinine (ng/ml), Mean ± SD: 2.8 ± 0.9 ng/mL
  Blood concentration of (+)-13a-(S)-deoxytylophorinine (ng/ml), individual animals 1-3: 2.6 ng/mL and 2.0 ng/mL and 3.8 ng/mL
[2]; [12]
  Blood concentration of (+)-13a-(S)-deoxytylophorinine (ng/ml), Mean ± SD: 1.2 ± 1.0 ng/mL
  Blood concentration of (+)-13a-(S)-deoxytylophorinine (ng/ml), individual animals 1-3: 2.3 ng/mL and 1.0 ng/mL and 0.4 ng/mL
[2]; [13]
  AUC(0-inf): 49.9 ng·h/mL
  AUC(0-t): 46.9 ng·h/mL
  Cmax: 35.5 ng/mL
  MRT inf: 2.18 h
  MRT last: 1.78 h
  Tmax: 4.8 min
